Experimental findings from patent US20040147595A1, “Biofilm degrading or sloughing compositions and methods” (priority 2001, published 2004) are described below.

The test system of one experiment is chitinase. The experiment in a line: Virulence factor production: chitinase activity of PAO-JP2 supernatant. To be noted: PAO-JP2, 70 nm OdDHL plus 3 μg/ml and 5 μg/ml furanone 56. Type of experiment: cell-based, Pseudomonas aeruginosa. The protocol:
The chitinase activity assay was performed as described by the assay manufacturer (Loewe Biochemica, Sauerlach, Germany). Supernatant (560 μl) of cultures prepared as described for the elastase assay was mixed with carboxymethyl-chitin-remazol brilliant violet (200 μl) and sodium phosphate buffer (40 μl, 1 M, pH 7.5). The reaction mixture was incubated for 18 h at 40° C. in a waterbath. The reaction was stopped by addition of HCl (200 μl, 2 N) and kept for 15 min on ice. After centrifugation (10 min at 15000 rpm), the absorbance (OD550 nm) of the supernatant was measured. The relative chitinase activity was calculated as OD550 nm/OD600 nm normalized to 1 ml supernatant.

For experiment [1], the system named is OHHL induced LuxR dependent expression of GFP. The experiment can be described thus: Quantitative furanone inhibition of the LuxR-PluxI-gfp(ASV) quorum sensor in E. coli MT102 (pJBA89). To be noted: gradient of furanone concentration lowering RFU to 40% versus OHHL concentration (5-100 nM). Type of experiment: cell-based, Escherichia coli. The source says: To analyse the AHL antagonist activity of the halogenated furanones we tested the compounds for their ability to inhibit 3oxo-C6-HSL (OHHL) induced LuxR dependent expression of green fluorescent protein (GFP) from a Pgfp(ASV) fusion in the AHL monitor strain E. coli MT102 harbouring pJBA89 (Andersen et al., 2001).
The medium used is minimal ABT containing 0.5% glucose and 0.5% Casamino Acids. In growing cultures of the AHL monitor strain E. coli Mt102 (pJBA89) encoding […] and a P-gfp(ASV) fusion, GFP(ASV) is produced immediately upon OHHL addition specifically from the LuxR controlled P-gfp(ASV) fusion gene. The sensitivity is high (responsive to as little as 3 nm OHHL) and due to the instability built into the GFP (ASV) variant there is no background production of green fluoroscence (Andersen et al., 2001). GFP expression from the AHL monitor strain E. coli MT102 (pJBA89) and the control strain MT102 harbouring the lacl^q, Plas-gfp(ASV) IPTG inducible expression system pMH197 was quantified in the following way. Overnight cultures were diluted four fold in fresh medium and incubated for one hour at 30° C. while OHHL and furanone compounds in the required concentrations were mixed in the wells of microtiter dishes. […] When absolute values were required, green fluoroscence was measured on a fluorometer (model RF-1501; Shimadzu, Tokyo, Japan) act at an excitation wavelength of 475 nm and emission detection at 515 nm. To establish a correlation between the colour code of the ARGUS-50 captured images and green fluorescence, both colour and relative fluorescence units (RFU), were determined for a dilution series of an E. coli MT102 (pJBA89) culture which had been incubated with […]. […]
From the second plot, the furanone concentration reducing the relative activity to 40% (ID60) is determined for each OHHL concentration. […]
To enable easy comparison of the strength of the furanones, an inhibition index (IIX40) is calculated for each furanone compound. […]

With `O=C1C=C/C(=C/Br)O1` [furanone 56], in the experiment with chitinase, the chitinase activity entry was “close to the uninduced level”. Besides, the “inhibition index (IIX40)” value in experiment [1] is listed as 0.51 mole of furanone per mmole of.
